Data from PMC9250534, “Synthesis and direct assay of large macrocycle diversities by combinatorial late-stage modification at picomole scale” (Nature Communications, 2022).
Numbered stars: 1 amine (or outer) side, 2 acyl side, 3 side chain; on linkers, the order of the positions; unused ones are H or OH. Bridge positions count the residues as written; N and C are the ends. Square brackets hold non-standard residues; d marks the D form. Peptide text beside a SMILES is read from it. * marks the point of attachment. ξ: configuration not given here. Pro(cis-4-NH-(E)-Cinnamoyl) = O=C(/C=C/c1ccccc1)N[C@@H]1CN[C@H](C(=O)O)C1; Pro(4S-NHCO(5-Cl-2-thienyl)) = O=C(N[C@@H]1CN[C@H](C(=O)O)C1)c1ccc(Cl)s1; ξPro(4-NHCO(5-Cl-2-thienyl)) = O=C(NC1CNC(C(=O)O)C1)c1ccc(Cl)s1; Benzoyl(3-CF3) = O=C(c1cccc(C(F)(F)F)c1)*; Tetrahydropyran4carbonyl = O=C(C1CCOCC1)*; 2Thenoyl(5-Cl) = O=C(c1ccc(Cl)s1)*; Cysteamide = C(CS[*:3])N[*:1]; Isovaleryl = CC(C)CC(=O)*; X1 = O=C(/C=C/c1ccccc1)*; Api = NC1(C(=O)O)CCNCC1; Dap = NC[C@H](N)C(=O)O; Bz = O=C(c1ccccc1)*; Mpa = O=C(O)CCS

Target: MDM2 (Homo sapiens, UniProt Q00987)
Assay: MDM2 binding screen: displacement of fluorescent p53 peptide probe FP53 (fluorescence polarization)
Details: for fraction fluorescent probe displaced, Screen: initial screen; for fraction fluorescent probe displaced, Screen / fraction fluorescent probe displaced, Replicate: crude macrocycle reactions
Outline: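 Single-point screen: one fluorescence anisotropy reading at 25 °C (485 nm excitation, 535 nm emission) per macrocycle. Crude macrocycle reactions, final 10 µM, were scored for displacing the fluorescent p53 peptide from human MDM2.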

[1] = 10 µM macrocycle concentration, crude acylated macrocycle (scaffold Mpa-AA1-AA2-AA3 x carboxylic acid), p53-based fluorescent peptide, human MDM2
[2] = crude reaction of macrocycle scaffold with Acid 91, (initial screen)
[3] = crude reaction of macrocycle scaffold with Acid 91, replicate

Sequence of MDM2 (Q00987 whole entry): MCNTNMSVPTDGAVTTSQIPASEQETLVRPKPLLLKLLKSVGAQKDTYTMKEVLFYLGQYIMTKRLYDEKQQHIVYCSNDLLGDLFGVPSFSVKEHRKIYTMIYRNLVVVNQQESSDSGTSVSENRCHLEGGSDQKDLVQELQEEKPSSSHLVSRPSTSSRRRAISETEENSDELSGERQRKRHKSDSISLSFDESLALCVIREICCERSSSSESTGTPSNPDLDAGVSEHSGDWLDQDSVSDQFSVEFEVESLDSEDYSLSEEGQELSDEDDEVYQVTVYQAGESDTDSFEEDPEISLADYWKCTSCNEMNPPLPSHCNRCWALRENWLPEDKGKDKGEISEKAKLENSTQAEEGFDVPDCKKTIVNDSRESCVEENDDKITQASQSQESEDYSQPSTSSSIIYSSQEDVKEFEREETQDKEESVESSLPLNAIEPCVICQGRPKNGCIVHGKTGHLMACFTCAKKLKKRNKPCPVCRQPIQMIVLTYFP

O=C1NC2(CCN(C(=O)c3ccc(Cl)s3)CC2)C(=O)NCCSSCCC(=O)N2CCCC2C(=O)NC1Cc1ccccc1 (centres unmarked) [X B1 F D6 Acid 14] ([Mpa]PF[Api](2Thenoyl(5-Cl))-Cysteamide; disulfide 1-C; configuration not given here)
fraction fluorescent probe displaced, Screen (Acid 14): 0.08
fraction fluorescent probe displaced, Replicate (Acid 14, replicate): 0.07

O=C(/C=C/c1ccccc1)NC[C@@H]1NC(=O)[C@H](Cc2c[nH]c3ccccc23)NC(=O)[C@H]2CCCN(C2)C(=O)CCSSCCNC1=O [X B4 W D3 Acid 91]
fraction fluorescent probe displaced, Screen (Acid 91): 0.16
fraction fluorescent probe displaced, Replicate (Acid 91, replicate): 0.09

O=C(NC[C@@H]1NC(=O)[C@@H]2CCCN2C(=O)CCSSCCNC(=O)[C@H](Cc2ccccc2)NC1=O)c1cccc(C(F)(F)F)c1 [X-B1-D3-F + A18] ([Mpa]P[Dap](Benzoyl(3-CF3))F-Cysteamide; disulfide 1-C)
fraction fluorescent probe displaced [1]: 0.09317

O=C1CCSSCCNC(=O)[C@H](Cc2ccccc2)NC(=O)[C@H]2CCCN(C2)C(=O)C2(CCN(C(=O)c3ccc(Cl)cc3)CC2)N1 [X D6 B4 F + Acid 25]
fraction fluorescent probe displaced (crude reaction of macrocycle scaffold with Acid 25, (initial screen)): 0.09
fraction fluorescent probe displaced (crude reaction of macrocycle scaffold with Acid 25, replicate): 0.15

O=C1CCNC(=O)C(Cc2ccccc2)NC(=O)CCSSCCNC(=O)C(CNC(=O)c2ccc(Cl)cc2)N1 (centres unmarked) [X F B2 D3 Acid 25]
fraction fluorescent probe displaced, Screen (Acid 25): 0.22
fraction fluorescent probe displaced, Replicate (Acid 25, replicate): 0.17

CC(C)CC(=O)NC[C@@H]1NC(=O)[C@@H]2CCCN2C(=O)CCSSCCNC(=O)[C@H](Cc2ccccc2)NC1=O [X-B1-D3-F + A8] ([Mpa]P[Dap](Isovaleryl)F-Cysteamide; disulfide 1-C)
fraction fluorescent probe displaced [1]: -0.02974

O=C(C=Cc1ccccc1)NC1CC2C(=O)NCCSSCCC(=O)NC(Cc3c[nH]c4ccccc34)C(=O)NCc3cccc(c3)C(=O)N2C1 (centres unmarked) [X W B5 D5 Acid 91]
fraction fluorescent probe displaced, Screen (Acid 91): 0.08
fraction fluorescent probe displaced, Replicate (Acid 91, replicate): 0.17

O=C(/C=C/c1ccccc1)NC[C@@H]1NC(=O)CCSSCCNC(=O)[C@H](Cc2ccccc2)NC(=O)CCNC1=O [X D3 B2 F Acid 91]
fraction fluorescent probe displaced, Screen (Acid 91): 0.08
fraction fluorescent probe displaced, Replicate (Acid 91, replicate): 0.04

O=C1NC2(CCN(C(=O)/C=C/c3ccccc3)CC2)C(=O)N[C@@H](Cc2ccccc2)C(=O)NCCSSCCC(=O)N2CCC[C@H]1C2 [X B4 D6 F + Acid 91]
fraction fluorescent probe displaced [2]: 0.12
fraction fluorescent probe displaced [3]: 0.12

O=C1CCSSCCNC(=O)C2CC(NC(=O)c3ccc(Cl)cc3)CN2C(=O)CCNC(=O)C(Cc2ccccc2)N1 (centres unmarked) [X F B2 D5 Acid 25]
fraction fluorescent probe displaced, Screen (Acid 25): 0.12
fraction fluorescent probe displaced, Replicate (Acid 25, replicate): 0.07

O=C1CCSSCCNC(=O)C(Cc2ccccc2)NC(=O)C2CN(C(=O)c3ccc(Cl)s3)CCN2C(=O)c2cccc(c2)CN1 (mixture of isomers) [X B5 D7 F Acid 14]
fraction fluorescent probe displaced, Screen (Acid 14): -0.00483
fraction fluorescent probe displaced, Replicate (Acid 14, replicate): 0.0465

O=C(NC[C@@H]1NC(=O)[C@@H]2CCCN2C(=O)CCSSCCNC(=O)[C@H](Cc2c[nH]c3ccccc23)NC1=O)C1CCOCC1 [X-B1-D3-W + A44] ([Mpa]P[Dap](Tetrahydropyran4carbonyl)W-Cysteamide; disulfide 1-C)
fraction fluorescent probe displaced [1]: 0.01122

O=C1CCSSCCNC(=O)[C@@H]2CCCN2C(=O)[C@H](Cc2ccccc2)NC(=O)C2(CCN(C(=O)/C=C/c3ccccc3)CC2)N1 [X D6 F B1 Acid 91] ([Mpa][Api](X1)FP-Cysteamide; disulfide 1-C)
fraction fluorescent probe displaced, Screen (Acid 91): -0.05
fraction fluorescent probe displaced, Replicate (Acid 91, replicate): -0.08

O=C(N[C@H]1C[C@H]2C(=O)N[C@@H](Cc3c[nH]c4ccccc34)C(=O)N3CCC[C@H]3C(=O)NCCSSCCC(=O)N2C1)c1ccc(Cl)s1 [X D5 W B1 Acid 14] ([Mpa][Pro(4S-NHCO(5-Cl-2-thienyl))]WP-Cysteamide; disulfide 1-C)
fraction fluorescent probe displaced, Screen (Acid 14): 0.23
fraction fluorescent probe displaced, Replicate (Acid 14, replicate): 0.10

O=C1CCSSCCNC(=O)C2CN(C(=O)c3ccc(Cl)cc3)CCN2C(=O)C(Cc2ccccc2)NC(=O)CCN1 (mixture of isomers) [X B2 F D7 Acid 25]
fraction fluorescent probe displaced, Screen (Acid 25): -0.07
fraction fluorescent probe displaced, Replicate (Acid 25, replicate): 0.0465

O=C(NC1CC2C(=O)N3CCCC3C(=O)NC(Cc3c[nH]c4ccccc34)C(=O)NCCSSCCC(=O)N2C1)c1ccc(Cl)s1 (centres unmarked) [X D5 B1 W Acid 14] ([Mpa][ξPro(4-NHCO(5-Cl-2-thienyl))]PW-Cysteamide; disulfide 1-C; configuration not given here)
fraction fluorescent probe displaced, Screen (Acid 14): 0.17
fraction fluorescent probe displaced, Replicate (Acid 14, replicate): 0.0465

O=C1NCCSSCCC(=O)N2CCCC(C2)C(=O)N2CCN(C(=O)c3ccc(Cl)cc3)CC2C(=O)NC1Cc1c[nH]c2ccccc12 (centres unmarked) [X B4 D7 W Acid 25]
fraction fluorescent probe displaced, Screen (Acid 25): 0.32
fraction fluorescent probe displaced, Replicate (Acid 25, replicate): 0.17

O=C1CCSSCCNC(=O)[C@H](CNC(=O)c2ccc(Cl)cc2)NC(=O)[C@H]2CCCN(C2)C(=O)[C@H](Cc2c[nH]c3ccccc23)N1 [X W B4 D3 Acid 25]
fraction fluorescent probe displaced, Screen (Acid 25): 0.25
fraction fluorescent probe displaced, Replicate (Acid 25, replicate): 0.30

O=C1CCSSCCNC(=O)C2(CCN(C(=O)/C=C/c3ccccc3)CC2)NC(=O)[C@@H]2CCCN2C(=O)[C@H](Cc2ccccc2)N1 [X F B1 D6 Acid 91] ([Mpa]FP[Api](X1)-Cysteamide; disulfide 1-C)
fraction fluorescent probe displaced, Screen (Acid 91): -0.05
fraction fluorescent probe displaced, Replicate (Acid 91, replicate): 0.0168

O=C(/C=C/c1ccccc1)N[C@H]1C[C@H]2C(=O)N3CCC[C@H]3C(=O)N[C@@H](Cc3c[nH]c4ccccc34)C(=O)NCCSSCCC(=O)N2C1 [X D5 B1 W Acid 91] ([Mpa][Pro(cis-4-NH-(E)-Cinnamoyl)]PW-Cysteamide; disulfide 1-C)
fraction fluorescent probe displaced, Screen (Acid 91): 0.03
fraction fluorescent probe displaced, Replicate (Acid 91, replicate): 0.07

O=C1NCCSSCCC(=O)N2CCC[C@H]2C(=O)NC2(CCN(C(=O)c3ccc(Cl)s3)CC2)C(=O)N[C@H]1Cc1ccccc1 [X B1 D6 F Acid 14] ([Mpa]P[Api](2Thenoyl(5-Cl))F-Cysteamide; disulfide 1-C)
fraction fluorescent probe displaced, Screen (Acid 14): -0.0116
fraction fluorescent probe displaced, Replicate (Acid 14, replicate): 0.07

O=C1CCSSCCNC(=O)C2(CCN(C(=O)c3ccc(Cl)cc3)CC2)NC(=O)[C@H]2CCCN(C2)C(=O)[C@H](Cc2c[nH]c3ccccc23)N1 [X W B4 D6 Acid 25]
fraction fluorescent probe displaced, Screen (Acid 25): 0.25
fraction fluorescent probe displaced, Replicate (Acid 25, replicate): 0.12

O=C1N[C@@H](Cc2c[nH]c3ccccc23)C(=O)NC2(CCN(C(=O)c3ccc(Cl)cc3)CC2)C(=O)NCCSSCCC(=O)N2CCC[C@H]1C2 [X B4 W D6 Acid 25]
fraction fluorescent probe displaced, Screen (Acid 25): 0.22
fraction fluorescent probe displaced, Replicate (Acid 25, replicate): 0.20

O=C1CCSSCCNC(=O)c2cccc(c2)CNC(=O)C2CC(NC(=O)c3ccc(Cl)s3)CN2C(=O)C(Cc2ccccc2)N1 (centres unmarked) [X F D5 B5 Acid 14]
fraction fluorescent probe displaced, Screen (Acid 14): -0.00483
fraction fluorescent probe displaced, Replicate (Acid 14, replicate): -0.00432

O=C(NC[C@@H]1NC(=O)[C@@H]2CCCN2C(=O)CCSSCCNC(=O)[C@H](Cc2c[nH]c3ccccc23)NC1=O)c1ccccc1 [X-B1-D3-W + A1] ([Mpa]P[Dap](Bz)W-Cysteamide; disulfide 1-C)
fraction fluorescent probe displaced [1]: -0.005048

O=C1CCSSCCNC(=O)[C@H]2CCCN(C2)C(=O)[C@H](Cc2c[nH]c3ccccc23)NC(=O)[C@H](CNC(=O)c2ccc(Cl)s2)N1 [X D3 W B4 Acid 14]
fraction fluorescent probe displaced, Screen (Acid 14): 0.20
fraction fluorescent probe displaced, Replicate (Acid 14, replicate): 0.0465

O=C1CCNC(=O)C2(CCN(C(=O)c3ccc(Cl)s3)CC2)NC(=O)[C@H](Cc2ccccc2)NC(=O)CCSSCCN1 [X F D6 B2 Acid 14]
fraction fluorescent probe displaced, Screen (Acid 14): -0.00483
fraction fluorescent probe displaced, Replicate (Acid 14, replicate): 0.0465

O=C1CCSSCCNC(=O)[C@H](CNC(=O)c2ccc(Cl)cc2)NC(=O)c2cccc(c2)CNC(=O)[C@H](Cc2c[nH]c3ccccc23)N1 [X W B5 D3 Acid 25]
fraction fluorescent probe displaced, Screen (Acid 25): 0.41
fraction fluorescent probe displaced, Replicate (Acid 25, replicate): 0.22

O=C(NC[C@@H]1NC(=O)[C@@H]2CCCN2C(=O)CCSSCCNC(=O)[C@H](Cc2c[nH]c3ccccc23)NC1=O)c1cccc(C(F)(F)F)c1 [X-B1-D3-W + A18] ([Mpa]P[Dap](Benzoyl(3-CF3))W-Cysteamide; disulfide 1-C)
fraction fluorescent probe displaced [1]: -0.006211

O=C1CCSSCCNC(=O)[C@H](Cc2c[nH]c3ccccc23)NC(=O)[C@@H]2CCCN2C(=O)C2(CCN(C(=O)/C=C/c3ccccc3)CC2)N1 [X D6 B1 W Acid 91] ([Mpa][Api](X1)PW-Cysteamide; disulfide 1-C)
fraction fluorescent probe displaced, Screen (Acid 91): -0.05
fraction fluorescent probe displaced, Replicate (Acid 91, replicate): 0.04

O=C1CCSSCCNC(=O)[C@H](Cc2ccccc2)NC(=O)[C@@H]2C[C@H](NC(=O)c3ccc(Cl)s3)CN2C(=O)CCN1 [X B2 D5 F Acid 14]
fraction fluorescent probe displaced, Screen (Acid 14): 0.16
fraction fluorescent probe displaced, Replicate (Acid 14, replicate): 0.05

O=C(C=Cc1ccccc1)NCC1NC(=O)CCSSCCNC(=O)C(Cc2c[nH]c3ccccc23)NC(=O)C2CCCN(C2)C1=O (centres unmarked) [X D3 B4 W Acid 91]
fraction fluorescent probe displaced, Screen (Acid 91): 0.11
fraction fluorescent probe displaced, Replicate (Acid 91, replicate): 0.09

O=C1N[C@@H](Cc2ccccc2)C(=O)NC2(CCN(C(=O)/C=C/c3ccccc3)CC2)C(=O)NCCSSCCC(=O)N2CCC[C@H]1C2 [X B4 F D6 + Acid 91]
fraction fluorescent probe displaced [2]: 0.08
fraction fluorescent probe displaced [3]: 0.0168

O=C(NC[C@@H]1NC(=O)[C@H]2CCCN(C2)C(=O)CCSSCCNC(=O)[C@H](Cc2ccccc2)NC1=O)c1ccc(Cl)cc1 [X B4 D3 F Acid 25]
fraction fluorescent probe displaced, Screen (Acid 25): 0.09
fraction fluorescent probe displaced, Replicate (Acid 25, replicate): 0.12

O=C(/C=C/c1ccccc1)NC[C@@H]1NC(=O)CCNC(=O)CCSSCCNC(=O)[C@H](Cc2ccccc2)NC1=O [X B2 D3 F Acid 91]
fraction fluorescent probe displaced, Screen (Acid 91): 0.0563
fraction fluorescent probe displaced, Replicate (Acid 91, replicate): -0.00827
